Assay results as given in patent US8129355B2, “Ketone ligands for modulating the expression of exogenous genes via an ecdysone receptor complex” (priority 2002, dated 2012).
Read-outs that look alike come from different tables or passages of the source.

Target: T1, GAL4 DBD-CfEcR(DEF)/VP16AD-MmRXRE (Choristoneura fumiferana, UniProt O77240)
T1 sequence (O77240 1-513): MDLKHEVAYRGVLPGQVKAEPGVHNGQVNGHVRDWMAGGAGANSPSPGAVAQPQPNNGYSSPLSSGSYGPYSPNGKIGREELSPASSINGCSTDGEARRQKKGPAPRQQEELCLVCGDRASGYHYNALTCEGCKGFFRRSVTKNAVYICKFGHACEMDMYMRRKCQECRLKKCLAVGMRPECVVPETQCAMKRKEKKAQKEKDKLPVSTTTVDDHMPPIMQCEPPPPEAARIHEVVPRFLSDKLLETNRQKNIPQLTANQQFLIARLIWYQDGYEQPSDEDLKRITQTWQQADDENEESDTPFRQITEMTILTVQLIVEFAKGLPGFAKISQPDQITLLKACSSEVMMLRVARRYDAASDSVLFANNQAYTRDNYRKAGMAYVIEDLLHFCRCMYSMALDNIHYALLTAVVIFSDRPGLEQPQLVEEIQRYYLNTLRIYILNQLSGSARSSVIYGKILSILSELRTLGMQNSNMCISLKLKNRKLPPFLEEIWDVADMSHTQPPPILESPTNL
Assay: cell-based
Conditions: for fold induction at 33 µM: CHO, read-out: Fold Induction Average, 13B3 Assay (33 μM); for 13B3 Rel Max FI: maximum fold induction at any concentration relative to that of GS-E ligand
Procedure, shortened: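 Stable CHO clone 13B3 expressing GAL4 DBD-CfEcR(DEF) and VP16AD-mouse RXR(DE) with GAL4 RE-luciferase reporter. Ligands tested at 8 concentrations, 33–0.01 μM; luciferase read 48 h after treatment. Fold induction versus DMSO; BC50 from three-parameter logistic fit.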

SMILES | EC50 [µM] | fold induction at 33 µM | 13B3 Rel Max FI | Fold Induction Average, 13B3 Assay (33 μM) | EC50 (read-out: 13B3 EC50, average, dose response, three-parameter logistic model) [µM] | Fold Induction Average, 13B3 Assay (33 μM) (single dose 33 μM, RLU ligand treated / RLU DMSO treated cells)
CCC(CC)(NC(=O)c1cccc(OC)c1C)C(=O)c1ccc(F)c(C)c1 [Example 50] | > 33 | 1 | 0.00 | – | – | –
COc1cccc(C(=O)NC2(C(=O)c3ccc(F)c(C)c3)CCCCC2)c1C [Example 18] | 3.96 | 50200 | 0.29 | – | – | –
COc1cccc(C(=O)NC2(C(=O)c3cc(C)cc(C)c3)CCC2)c1C [Example 14] | 6.6 | 1024 | 0.33 | – | – | –
COc1cccc(C(=O)NC2(C(=O)c3cc(C)cc(C)c3)CCCC2)c1C [Example 10] | 3.27 | 32700 | 0.71 | – | – | –
COc1cccc(C(=O)NC2(C(=O)c3cc(C)cc(C)c3)CCSCC2)c1C [Example 28] | 3.25 | 3180 | 0.74 | – | – | –
COc1cc(C(=O)C2(NC(=O)c3cccc(OC)c3C)CCCCC2)cc(OC)c1C [Example 66] | 23.8 | 357 | 0.50 | – | – | –
COc1cccc(C(=O)C(C)(C)NC(=O)c2ccccc2OC)c1 [Example 117] | – | – | – | 12 | – | –
CCC(CC)(NC(=O)c1cccc(OC)c1C)C(=O)c1cc(C)cc(C)c1 [Example 51] | ~15 | 1380 | 0.64 | – | – | –
COc1cccc(C(=O)NC2(C(=O)c3cc(F)c(F)c(OC)c3)CCCC2)c1C [Example 67] | 17.6 | 555 | 0.50 | – | – | –
CCC(CC)(NC(=O)c1cccc(OC)c1C)C(=O)c1ccc(F)cc1 [Example 38] | > 33 | 18 | 0.00 | – | – | –
COc1cccc(C(=O)NC2(C(=O)c3ccc(C)cc3)CCCCC2)c1C [Example 15] | 4.11 | 371 | 0.09 | – | – | –
CCCCC(=O)C1(NC(=O)c2cccc(OC)c2C)CCCCC1 [Example 120] | 14.9 | 367 | 0.27 | – | – | –
COc1ccccc1C(=O)C1(NC(=O)c2cccc(OC)c2C)CCCC1 [Example 40] | ~15 | 2170 | 0.58 | – | – | –
COc1cccc(C(=O)NC(C)(C(=O)c2ccccc2C)C(C)C)c1C (stereo not drawn) [Example 63] | > 33 | 14 | 0.03 | – | – | –
COc1cccc(C(=O)NC(C)(Cc2ccccc2)C(=O)c2cc(C)cc(C)c2)c1C (stereo not drawn) [Example 12] | > 33 | 72 | 0.00 | – | – | –
COc1cccc(C(=O)NC2(C(=O)c3cccc(C)c3)CCSCC2)c1C [Example 26] | ~20 | – | 0.11 | – | – | –
COc1cccc(C(=O)NC2(C(=O)c3cc(C)cc(C)c3)CCC3(CC2)OCCO3)c1C [Example 29] | > 33 | 5 | 0.00 | – | – | –
CCC(CC)(NC(=O)c1cccc(OC)c1C)C(=O)c1cccc(OC)c1 [Example 49] | > 33 | – | 0.00 | – | – | –
COc1cccc(C(=O)NC2(C(=O)c3ccc(F)cc3)CCCCC2)c1C [Example 60] | > 33 | 578 | 0.01 | – | – | –
COc1cccc(C(=O)NC2(C(=O)c3ccccc3C)CCCCC2)c1C [Example 44] | > 33 | 36 | 0.00 | – | – | –
COc1cccc(C(=O)C(C)(CC(C)C)NC(=O)c2cccc(OC)c2C)c1 (stereo not drawn) [Example 53] | > 33 | – | 0.00 | – | – | –
CCC(CC)(NC(=O)c1cccc(OC)c1C)C(=O)c1cccc(C)c1 [Example 48] | ≥ 33 | 12 | 0.00 | – | – | –
COc1cccc(C(=O)NC2(C(=O)c3cc(C)cc(C)c3)CC2)c1C [Example 13] | > 33 | 3 | 0.00 | – | – | –
COc1cccc(C(=O)NC(C)(CC(C)C)C(=O)c2cccc(C)c2)c1C (stereo not drawn) [Example 52] | > 33 | 114 | 0.00 | – | – | –

SMILES | EC50 [µM] | fold induction at 33 µM | 13B3 Rel Max FI | Fold Induction Average, 13B3 Assay (33 μM) | EC50 (read-out: 13B3 EC50, average, dose response, three-parameter logistic model) [µM] | Fold Induction Average, 13B3 Assay (33 μM) (single dose 33 μM, RLU ligand treated / RLU DMSO treated cells)
COc1ccccc1C(=O)C(C)(NC(=O)c1cccc(OC)c1C)C(C)C (stereo not drawn) [Example 30] | > 33 | 133 | 0.00 | – | – | –
COc1cccc(C(=O)NC(C)(C(=O)c2cc(C)cc(C)c2)C(C)C)c1C (stereo not drawn) [Example 20] | 4 | – | 0.92 | – | – | –
COc1cccc(C(=O)NC(C)(CC(C)C)C(=O)c2cc(C)cc(C)c2)c1C (stereo not drawn) [Example 55] | 3.42 | 24700 | 0.21 | – | – | –
COc1cccc(C(=O)NC2(C(=O)c3ccccc3)CCCCC2)c1C [Example 69] | 19.4 | 164 | 0.19 | – | – | –
CCc1c(OC)cccc1C(=O)NC1(C(=O)c2ccccc2)CCCC1 [Example 21] | > 33 | 2 | 0.00 | – | – | –
COc1cccc(C(=O)NC2(C(=O)c3cccc(C)c3)CCCCC2)c1C [Example 7] | 6.73 | 3100 | 0.55 | – | – | –
CCC(CC)(NC(=O)c1cccc(OC)c1C)C(=O)c1ccccc1OC [Example 37] | > 33 | 885 | 0.08 | – | – | –
COc1ccc(C(=O)C2(NC(=O)c3cccc(OC)c3C)CCCCC2)c(OC)n1 [Example 64] | 3.79 | 599 | 0.81 | – | – | –
COc1cc(C(=O)C2(NC(=O)c3cccc(OC)c3C)CCCC2)cc(OC)c1C [Example 65] | – | – | 0.03 | – | ~20 | 19
COc1cccc(C(=O)NC(C)(C(=O)c2ccc(C)cc2)C(C)C)c1C (stereo not drawn) [Example 33] | > 33 | 78 | 0.00 | – | – | –
COc1cccc(C(=O)NC(C)(C(=O)c2ccccc2)C(C)C)c1C (stereo not drawn) [Example 34] | > 33 | 6 | 0.00 | – | – | –
COc1cccc(C(=O)NC2(C(=O)c3cccc(C)c3)CCOCC2)c1C [Example 25] | > 33 | 117 | 0.00 | – | – | –
COc1cccc(C(=O)C2(NC(=O)c3cccc(OC)c3C)CCCCC2)c1 [Example 4] | 3.46 | 45 | 0.64 | – | – | –
COc1ccc(C(=O)C2(NC(=O)c3cccc(OC)c3C)CCCCC2)cc1 [Example 46] | > 33 | 102 | 0.00 | – | – | –
COc1cccc(C(=O)NC2(C(=O)c3ccc(F)c(C)c3)CCCC2)c1C [Example 17] | 4.51 | 1190 | 0.01 | – | – | –
COc1cccc(C(=O)NC2(C(=O)c3cc(C)cc(C)c3)CCS(=O)(=O)CC2)c1C [Example 62] | > 33 | 3 | 0.00 | – | – | –
COc1cccc(C(=O)NC(C)(C(=O)c2cccc(C)c2)C(C)C)c1C (stereo not drawn) [Example 31] | > 33 | 1000 | 0.08 | – | – | –
COc1cccc(C(=O)NC2(C(=O)c3cc(F)c(F)c(OC)c3)CCCCC2)c1C [Example 68] | 8.79 | 819 | 1.00 | – | – | –
COc1cccc(C(=O)NC2(C(=O)c3cc(C)cc(C)c3)CCCCC2)c1C [Example 11] | 1.8 | 94700 | 1.15 | – | – | –
COc1cccc(C(=O)NC2(C(=O)c3cc(C)cc(C)c3)CCOCC2)c1C [Example 27] | ~20 | 31600 | 0.36 | – | – | –
COc1ccccc1C(=O)C1(NC(=O)c2cccc(OC)c2C)CCCCC1 [Example 45] | 1.35 | 92900 | 0.67 | – | – | –
COc1cccc(C(=O)C(C)(NC(=O)c2cccc(OC)c2C)C(C)C)c1 (stereo not drawn) [Example 32] | > 33 | 96 | 0.00 | – | – | –
COc1cccc(C(=O)NC2(C(=O)c3ccc(F)cc3)CCCC2)c1C [Example 42] | > 33 | 4 | 0.00 | – | – | –
CCc1c(C(=O)NC2(C(=O)c3ccccc3)CCCC2)ccc2c1OCCO2 [Example 22] | > 33 | 4 | 0.00 | – | – | –
